Consider `CS(=O)(=O)N[C@@H](CCCCN)C(=O)NC[C@H](CC1(C(=O)N[C@@H](Cc2ccc(O)cc2)C(=O)O)CCCC1)C(=O)O`, for which the melting point lay in the range of 237 to 238 °C.

On to `N#Cc1cnc2sc(-c3ccccc3)cc2c1Nc1ccc2[nH]ccc2c1`, for which the melting point is greater than 245 °C. The compound `O=Cc1ccc(C=Cc2ccccc2)cc1` showed a melting point of 112 to 113 °C.

As for `CC(=O)Oc1ccc2c3c1OC1C(OS(=O)(=O)C(F)(F)F)CCC4(O)C(C2)N(C)CCC314` (stereo unspecified), the melting point lay in the range of 125 to 126 °C. With `Clc1ccc2c(c1)C(c1ccccc1)Nc1nccn1-2` (stereo unspecified), the melting point lay in the range of 239 to 241 °C.

For the compound `CC12CCCc3cc(N(CC4CC4)c4ncc(C(=O)O)cn4)cc(c31)CCC2`, the melting point is 123 to 124 °C. The result for `CC1(C)CCC(C)(C)c2cc3cc(-c4csc(C(=O)O)c4)ccc3cc21` reads 207 to 208 °C. In the case of `CNS(=O)(=O)c1ccc(C=C2C(C)=C(CC(=O)OC)c3cc(OC)ccc32)cc1` it was 167 to 169 °C; in that of `OC(CCNC1=NCCCN1)c1ccccc1` (stereo unspecified), 130 to 135 °C. In the case of `O=CNCC1CN(c2c(F)cc3c(=O)c(C(=O)O)cn(C4CC4)c3c2F)CCO1` (stereo unspecified), the melting point fell in the range of 210 to 213 °C. In turn, `OCc1ncc(O)c2c1[nH]c1ccccc12` returned a melting point of 148 °C.

`CC(C)(C)OC(=O)N1C[C@@H](c2c[nH]c3ccccc23)[C@H](c2cn3c4c(cccc24)CCC3)C1`: the melting point lay within 239 to 240 °C. In the case of `Cn1c2ccccc2c2c3c(ccc21)C(=O)OC3=O` it was 153 °C; in that of `COC(=O)c1cccc(-c2ccccc2OC2OC(C)C(O)C(O)C2O)c1` (stereo unspecified), 137 to 140 °C. In turn, `O=C(c1c[nH]c2cc(C#Cc3ccccc3)ccc12)C1CSC(c2cccnc2)N1` (stereo unspecified) returned a melting point of 103 to 107 °C. Compound `CCCc1nc(C(C)(C)O)c(C(=O)OC2OC(=O)c3ccccc32)n1Cc1ccc(-c2ccccc2-c2nnn[nH]2)cc1` (stereo unspecified) gave a melting point of 168 to 170 °C. In turn, `Nc1ncccc1CCc1ccccc1` displayed a melting point of 106 to 108 °C.

The compound `Cc1c(C(=O)c2ccccc2)c(=O)n(C)c(=O)n1C` registered a melting point of 132 to 134 °C. The compound `O=C(c1ccc(-c2cccc(C(F)(F)F)c2)o1)N1Cc2c([nH]c3ccccc3c2=O)C1c1ccc2c(c1)OCO2` (stereo unspecified) displayed a melting point of 219 to 221 °C. As to `O=c1[nH]c2cc([N+](=O)[O-])c(S(=O)(=O)c3cccc4cnccc34)cc2o1`, the melting point was greater than 270 °C. `CC(N(C(=O)c1ccc(C(F)(F)F)cc1)[C@H](C)C(=O)O)[C@](O)(Cn1cncn1)c1ccc(F)cc1F` (mixture of isomers) showed a melting point of 219 to 221 °C. On to `Nc1nc2ccccc2c2c1nc(CCO)n2CC1(O)CCC1`, for which the melting point lay in the range of 132 to 137 °C.

`CCCOc1cc(C(=O)O)cc(N)c1C(=O)c1ccccc1` displayed a melting point of 220 to 222 °C. For the compound `COc1ccc(C(N)C2(C(=O)O)C3CC4CC(C3)CC2C4)cc1` (stereo unspecified), the melting point lay in the range of 205 to 213 °C. `Cc1cc(Br)cnc1CCCCNC1=NS(=O)N=C1N` (stereo unspecified) returned a melting point of 188 to 190 °C.

As for `COC(=O)CC[C@@H](Cc1cn(CCCc2ccccc2)c2ccccc12)NC(=O)CCCCCCc1ccccc1`, the melting point fell in the range of 79.4 to 81 °C. `CS(=O)(=O)N1CCn2c(nc3c(N)nc4cc(OCc5ccccc5)ccc4c32)C1` returned a melting point of 266 to 268 °C. Compound `CN1Cc2ccc(NC(=O)N[C@@H]3c4cc(C#N)ccc4OC(C)(C)[C@H]3O)cc2C1` came in with a melting point of 220 to 222 °C. For the compound `CCNCC1CCN(c2c(F)cc3c(=O)c(C(=O)O)cn(NC)c3c2F)C1` (stereo unspecified), the melting point fell in the range of 222 to 224 °C. `COC(=O)C1=C(C)NC(C)=C(C(=O)OCCN2CCN(C(c3ccccc3)c3ccccc3)CC2)C1c1ccco1` (stereo unspecified): the melting point fell in the range of 71 to 77 °C.

`CCCn1c(-c2ccccc2)nc2cc(CO)ccc21` had a melting point of 113 °C.

Regarding `CCCCc1ccc(NC=C(C#N)C(=O)OCC)nc1`, the melting point fell in the range of 69 to 73 °C. The result for `CCN(C(=O)Cn1c(=O)n(C)c2nc(-c3ccccc3)ncc21)c1ccc(O)cc1` reads 254 to 256 °C; that for `CN1CCN(c2ccc3nc(N)c(C#N)c(Cl)c3c2)CC1`, 189 °C. For `CCOC(=O)CCC(=O)NCc1ccc(N)cc1`, the melting point was in the range of 62 to 64 °C. The result for `CSc1c(C#N)nn(-c2c(Cl)cc(C(F)(F)F)cc2Br)c1N` reads 178 to 180 °C; that for `Cc1ccccc1N1CCc2c(N)nc3c(C)cccc3c21`, 173 to 174 °C.

On to `COc1ccc(CCn2ccc3ccc(-c4cccc(C(=O)NCCN(C)C)c4)nc32)cc1OC`, for which the melting point fell in the range of 97 to 98 °C. Take `Nc1nc(Oc2cc(F)cc(F)c2)nc2nc(-c3ccco3)nn12`: the melting point was greater than 300 °C. The result for `CCOC(=O)C(C=O)Cc1ccn(Cc2ccccc2)c(=O)c1` (stereo unspecified) reads 140 to 143 °C; that for `COc1ccc(Cl)c(S(=O)(=O)NC(=O)c2cn3cc(C(F)(F)F)ncc3n2)c1`, 236 to 237 °C; that for `OC(CON=C1CCCc2sccc21)CN1CCCC1` (stereo unspecified), 136 °C.

`CC(C)C[C@H](NCc1ccc(OC(C)(C)C)cc1)C(=O)N1CCN(C(c2ccc(F)cc2)c2ccc(F)cc2)CC1` came in with a melting point of 56 to 61 °C. In turn, `NC(=O)c1ncc(Cl)cc1N` returned a melting point of 152 to 156 °C. `CNC(=NCCSCc1ccc2nc[nH]c2c1)NC#N` yielded a melting point of 191 °C. For the compound `COC(=O)NC(=N)C(C)C`, the melting point lay in the range of 127 to 130 °C. As for `CN1CCN(CCCN2c3ccc(F)cc3Sc3ccc(S(=O)(=O)N(C)C)cc32)CC1`, the melting point was in the range of 166 to 169 °C. `Cc1ccc(S(=O)(=O)Nc2c(C)c(C)c3c(c2C)CC(C)(C)O3)cc1` gave a melting point of 219 to 220 °C. In turn, `CC1(C)Cc2cccc(Cl)c2C=[N+]1[O-]` registered a melting point of 110 to 111 °C. `Cc1c(C2(N(C)C)CCC(c3cccc(F)c3)(N(C)C)CC2)[nH]c2ccccc12` (stereo unspecified) yielded a melting point of 126 to 132 °C. `CCOC(=O)c1nn(-c2ccc(Cl)cc2Cl)c(-c2ccc(Br)cc2)c1CBr` yielded a melting point of 116 °C. On to `c1ccc(CN2CCC(n3nnc4ccccc43)CC2)cc1`, for which the melting point was in the range of 110 to 111 °C. On to `CN(C)c1ncc(-c2cccc(Nc3ccc(-c4ccco4)cc3[N+](=O)[O-])c2)cn1`, for which the melting point lay in the range of 160 to 161 °C. `Cc1nc(NCCCO)c([N+](=O)[O-])c(N2CCc3ccccc3CC2)n1` came in with a melting point of 104 to 108 °C. The result for `CCCN(CCC)C(=O)Cn1c(-c2ccc(C)s2)nc2cccnc21` reads 125 to 127 °C; that for `COc1cc(Cl)cc(C)c1Nc1nc2c(Cl)ccc(C(O)(C(C)C)C(C)C)c2n1C`, 218 to 219 °C. Compound `Clc1ccc2c(Cl)nc(-c3ccc(Br)cc3)nc2c1` had a melting point of 189 to 190 °C. `COC(=O)c1cccc(OCCN2CCN(c3cc(Cl)nnc3Cl)CC2)c1`: the melting point is 105 to 107 °C. Take `CCOCCNC(=O)Oc1cccc(NC(=O)C=C(C)OC)c1`: the melting point was in the range of 133 to 134 °C.

Take `C=CC(=O)c1c(-c2ccccc2)[nH]c2ccccc12`: the melting point is 145 to 146 °C.

As to `CCCc1nc2cc(C)c(NC(=O)c3cc(C(F)(F)F)nn3-c3ncccc3Cl)c(C(=O)NC(C)C)c2cc1CC`, the melting point was 213 to 220 °C. The compound `Cc1ccncc1Cn1nnnc1-c1cc(Cl)ccc1Cl` gave a melting point of 169 to 171 °C. Regarding `Cc1c(NC(=O)c2ccc(OCc3cccc(F)c3)cc2)ccc2cc(CN3CCCC3)cnc12`, the melting point lay in the range of 151 to 152 °C. The result for `CN(C(=O)CN(C(=O)CNC(=O)Nc1cccc(C#N)c1)c1ccccc1)c1ccccc1` reads 204 °C; that for `Cc1ncc(-c2ccc([C@H](C)N3CC[C@](CC(C)(C)O)(c4ccccc4)OC3=O)cc2)cn1`, 112 to 115 °C; that for `COC(=O)COc1cccc(CCN(C)CCCC(C#N)(c2ccc(OC)c(OC)c2)C(C)C)c1` (stereo unspecified), 96 to 100 °C. As for `CCOC(=O)c1nc(N)sc1-c1nc2cc(C)ccn2c1C`, the melting point lay within 226 to 228 °C. On to `C[Si](C)(C)CCCOc1ccc(O)c(C(=O)O)c1`, for which the melting point lay within 115 to 116 °C. In the case of `CCN(C(C)=O)c1ccc2c(c1)Cc1c-2[nH]c2ccccc12` it was 232 °C. Consider `COC(=O)CCC(C(=O)c1cccc(O)c1)c1ccccc1C` (racemic), for which the melting point is 101 to 103 °C. In turn, `CC(=O)N1CCC[C@H]1C(=O)Nc1ccc(S(N)(=O)=O)cc1` showed a melting point of 283 to 285 °C. Compound `CCCS(=O)(=O)N[C@@H](CC(C)C)C(=O)N[C@@H](C(C)C)[C@@H](O)c1c(-c2ccccc2)c1=O` returned a melting point of 195 to 196 °C. As for `COc1ccc(-c2ccc(NC(=O)OC(C)(C)C)c([N+](=O)[O-])c2)cc1`, the melting point lay in the range of 107 to 109 °C.

`CN(C(CCn1c(=O)cc(Cl)n(C)c1=O)C(=O)O)S(=O)(=O)c1ccc(Oc2ccccc2)cc1` (stereo unspecified) showed a melting point of 115 to 117 °C.

Compound `CC(C)(C)OC(=O)N1CCC(c2ccc(N3C[C@H](CNC(=O)C(Cl)Cl)OC3=O)cc2F)CC1` came in with a melting point of 168 to 170 °C.

`CCNC1c2cc(S(N)(=O)=O)oc2SCC1(C)C` (stereo unspecified) registered a melting point of 147 °C. The result for `O=C(Nc1cn(C2CCCCO2)nc1C(=O)NCCCOc1ccccc1)c1ccccn1` (stereo unspecified) reads 106 to 107 °C; that for `CCCCc1nc2ccn(Cc3ccccc3C(=O)OCC)c(=O)c2n1Cc1ccc(-c2ccccc2-c2nnn[nH]2)cc1`, 203 to 204 °C; that for `CCCCCCCCCCCCC1CC(=O)CCC1=O` (stereo unspecified), 73 °C. In turn, `Fc1ccccc1-c1noc2c(Cl)c(OCCBr)ccc12` yielded a melting point of 131 to 132 °C. As for `CS(=O)(=O)c1cc(OCc2ccccc2)c(C(=O)O)s1`, the melting point was 188 to 189 °C. In the case of `CC(Cn1ccnc1)OCC(O)(P(=O)(O)O)P(=O)(O)O` (stereo unspecified) it was 135 to 140 °C; in that of `CC(=O)Oc1cc(C(C)=O)c(O)cc1NS(C)(=O)=O`, 205 to 206 °C; in that of `CS(=O)(=O)Nc1nc(-c2ccc(NS(C)(=O)=O)c(Sc3ccc(F)cc3F)c2)cs1`, 159 to 161 °C.

In turn, `Cn1ncc(C(=O)O)c1C(=O)Nc1ccn2nc(-c3ccnc(F)c3)nc2c1` had a melting point greater than 290 °C.

`O=C(O)C[C@@H](Oc1c(Br)cc(-c2c3ccccc3c(Br)c3sc4ccccc4c23)cc1Br)C(=O)O` yielded a melting point of 163 to 164 °C.
